Here are results for two compounds from patent US9446088B2, “Preparation and use of a plant extract from solanum glaucophyllum with an enriched content of 1,25 dihydroxyvitamin D3 glycosides and quercetin glycosides” (HERBONIS AG, priority 2008, dated 2016).

Experiment [1] relates to Japanese quails (Coturnix japonica) on Vitamin D-deficient diet. Nature of the experiment: Japanese quail eggshell bioassay for vitamin D activity. It counts as in vivo. The source says: From Rambeck et al. (see Rambeck et al, Ann. Nutr. Metab. 30, 9-14, (1986)) it is known that the quail egg shell assay is used as a simple bioassay to assess Vitamin D activity. According to this assay, Japanese quails (Coturnix japonica) of egg laying age and selected for a laying performance of >80% were set on a Vitamin D-deficient diet containing all other nutrients in optimal amounts. After approximately 8 days, the laying performance as the most sensitive marker dropped below 10%. Then, the test animals were randomly divided into groups of 10 animals and the diet was changed to the same diet, but supplemented with the substance to be tested. Laying performance was monitored for 21 days together with other markers of vitamin D-metabolism, such as alkaline phosphatase and calcium in plasma.
In Experiment 1 three groups of quails received 100, 200 and 400 international units of vitamin D3 per kg feed, 5 groups received 2, 8, 32, 128 and […] purified plant extract and one group was given synthetic 1, 25-Dihydroxyvitamin D3 (1 μg/kg feed) and another group received ground dried leaves of Solanum glaucophyllum (1000 mg/kg feed).

The subject of experiment [2] is commercial broiler chickens. Nature of the experiment: Broiler experiment for leg anomalies (tibial dyschondroplasia). It is filed as in vivo. Also on record: dose or concentration left out as unconfirmed. The following applies: after day 14 of treatment. As for the experimental part: In experiment 2, male one-day old broiler chickens were fed a commercial diet containing 1,000 IUD/kg feed of vitamin D3 ad libitum. […] 76.8 μg 1,25-Dihydroxyvitamin D3 (determined after in vitro hydrolysis of the extract).

As to `C=C1/C(=C\C=C2/CCC[C@]3(C)[C@@H]([C@H](C)CCCC(C)(C)O)CC[C@@H]23)C[C@@H](O)C[C@@H]1O` [Synthetic 1,25(OH)2D3, 1,25-dihydroxyvitamin D3], the “Eggshell weight (ESW) per day and animal, days 5-21” value in experiment [1] (1 μg per kg feed) was 0.502 g. In experiment [1] (1.0 μg/kg feed), the “Average egg weight between day 1 and 21” value amounted to 10.58 g; the “Egg weight in % of standard group Vitamin D3 400 IUD/kg feed” value was determined as 99%. For the same compound, in experiment [2], the “Healthy animals. (%)” value came to 92.9 b %, the “Occurrence of TD (%)” value is recorded as 3.55 *b % and the “Occurrence of other leg anomalies (%)” value was found to be 3.55 b %.

For `C=C1CC[C@H](O)C/C1=C/C=C1\CCC[C@]2(C)[C@@H]([C@H](C)CCCC(C)C)CC[C@@H]12` [Vitamin D3, cholecalciferol], the “Eggshell weight (ESW) per day and animal, days 5-21” value in experiment [1] (100 IUD per kg feed) is given as 0.231 g; in experiment [1] (200 IUD per kg feed) it was 0.434 g; in experiment [1] (400 IUD per kg feed) it was 0.738 g. Also, the “Average egg weight between day 1 and 21” value in experiment [1] (100 IUD/kg feed) was 9.61 g; in experiment [1] (200 IUD/kg feed) it was 10.40 g; in experiment [1] (400 IUD/kg feed) it was 10.70 g. The entries for the “Egg weight in % of standard group Vitamin D3 400 IUD/kg feed” value in experiment [1] (100 IUD/kg feed) and in experiment [1] (200 IUD/kg feed) were 90% and 97%, respectively. The “time by which laying performance passed 50% after beginning of treatment” value in experiment [1] (onset of egg laying) fell in the range of 48 to 72 h.
